Test results taken from US20110045032A1 (priority 2001, published 2011).

Key:
Type in all cases: in vivo
ragweed-sensitized mice [1] = experiment: BAL cell populations after methacholine challenge (Example 28); conditions: Ragweed alone 13.8%; P<0.05
Description: (§1) Two groups of mice were sensitized with two intraperitoneal injections and one intranasat administration of ragweed allergen (Ambrosia artemistifolia) on days 0, 4 and 11 respectively. A third group was treated similarly with saline to serve as non-allergic controls. The next two days, the treatment group animals were exposed to DHEA-S delivered as an aerosol (5 mg/ml suspension in saline, 2 ml nebulized) using the whole-body plethysmograph system (Buxco Electronics, Inc., Sharon, Conn.) and a DeVilbiss ultrasonic nebulizer. Twenty-four hours after the last drug exposure, mice were challenged with increasing concentrations of methacholine to determine bronchial hyperresponsiveness and then lavaged to determine relative changes in cell populations in BAL fluid.

[2] = system: dust mite-sensitized rabbits; experiment: BALF inflammation, DHEA-S vs Pulmicort vs saline (Example 27)
Description: This follow-up study compared the effects of DHEA-S and Puimicort® (budesonide inhalation suspension) on allergen-induced bronchial hyperresponsiveness (BHR) to histamine and pulmonary inflammation in dust mite-sensitized rabbits. The study included 18 animals divided into 3 treatment groups: saline, DHEA-S, and Puimicort. The animals were treated for once per day for 5 consecutive days via nebulization through a pediatric facemask covering the nose and mouth. Treatments were DHEA-S, 10 mg/day (5 mg/ml), Pulmicort Respules, 0.5 mg/day (0.5 mg/2 ml, note: this is the standard human dose) or saline (2 ml). A dust mite challenge was performed on day 4, and development of airway inflammation was assessed 6 hours and 30 hours after dust mite challenge. Histamine sensitivity was assessed 30 hours after challenge (day 5) and the lungs removed for histology.

[3] = system: dust mite-sensitized cynomolgus monkeys; experiment: BALF cell count after allergen challenge (Example 24); conditions: for total leukocytes in BALF: DHEA-S treatment group
Description: This study defines the effect of 5 days of treatment with DHEA-S on allergen-induced early phase response, and pulmonary inflammation in dust mite-sensitized cynomolgus monkeys. Baseline parameters were measured the week prior to treatment. DHEA-S (5 mg/ml, 2 ml nebulized) or an equivalent volume of saline was delivered once per day via nebulization (Pari LC+) through a canine facemask covering the nose and mouth on days 1 through 5. Allergen challenge and pulmonary function testing were performed on day 3 several hours after drug treatment, and broncho-alveolar lavage fluid BALF) was collected 48 hours post-challenge. The study includes 6 animals studied under a crossover design with a minimum of 4 weeks rest between study arms. The treatment with DHEA-S led to the following changes in the disease status of the animals: […]

ragweed-sensitized mice [4] = experiment: Bronchial hyperresponsiveness to methacholine, whole-body plethysmograph (Example 28)
Description: as §1
The ragweed only group responded in a dose-related fashion with increasing Penh value over the range of methacholine tested and a mean area under the curve of 7488.8.

[5] = 6 hours after allergen challenge, compared to Pulmicort
[6] = 48 hours after allergen challenge, compared to saline

## CC12CCC3C(CC=C4CC(OS(=O)(=O)[O-])CCC43C)C1CCC2=O.[Na+] (stereo not drawn) [DHEA-S, Dehydroepiandrosterone sulfate]
ragweed-sensitized mice [1]
  percent neutrophils in BAL: 3.2%
[2]; 6 hours after allergen challenge
  number of eosinophils in BALF: tended to decrease
[2]; [5]
  decrease of epithelial shedding: 54%
  reduction of number of neutrophils in the BALF: 91%
[2]; 6 hours after allergen challenge, compared to Pulmicort, DHEA-S 10 mg/day nebulized, 5 days
  reduction of cellular influx of cells into the BALF: 62%
[2]; 6 hours or 24 hours after allergen challenge
  allergen-induced increase in neutrophils in BALF: no allergen-induced increase in neutrophils
[2]; 24 hours after allergen challenge
  number of eosinophils in BALF: significant elevation
[2]; six hours following allergen challenge
  total number of cells in the BALF compared to pre-challenge value: did not
[2]; summary statement
  reduction of eosinophilic inflammation compared with budesonide: at least equivalent to budesonide
  reduction of neutrophilic inflammation compared with budesonide: far superior
[3]; [6]
  decrease of % eosinophils in BALF: approximately 57%
  decrease of percentage of neutrophils in BALF: 42%
[3]; 48 hours after allergen challenge, did not reach significance
  eosinophil numbers in BALF less than saline: approximately 64%
[3]; 48 hours after allergen challenge, saline 4.3±1.7
  eosinophil numbers in BALF: 1.6±0.8 ×10^4 cells/ml
[3]; 48 hours after allergen challenge
  total leukocytes in BALF: 39.4 ×10^4 cell/ml
[3]; before allergen challenge
  total leukocytes in BALF: 34.5 ×10^4 cell/ml
[3]; after allergen challenge
  absolute number of neutrophils in BALF: 9.7±2.2 ×10^4 cells/ml
[3]; cynomolgus monkey, in vivo
  neutrophil influx level vs pre-challenge: not significantly higher than pre-challenge levels
  percentage of eosinophils before and after allergen challenge: not significantly different
ragweed-sensitized mice [4]; aerosol 5 mg/ml suspension, 2 ml nebulized, two days
  reduction of area under the curve (AUC) of the methacholine response: 46%
ragweed-sensitized mice [4]; ragweed only 7488.8, non-allergic saline 2646.8
  mean area under the curve of Penh response to methacholine: 4038.0
